Measurements from ChEMBL document CHEMBL3045407, “Synthesis and antimicrobial activity of pyrazolinones and pyrazoles having benzothiazole moiety” (2012).
≈ marks a conversion by molar mass, not a printed value.

Key:
Format in all cases: functional
[1] = tested on: Candida albicans; test: Antimicrobial activity against Candida albicans ATCC 90028 by serial plate dilution method
[2] = tested on: Aspergillus niger; test: Antimicrobial activity against Aspergillus niger ATCC 9029 by serial plate dilution method
[3] = tested on: Escherichia coli; test: Antimicrobial activity against Escherichia coli ATCC 25922 by serial plate dilution method
[4] = tested on: Staphylococcus aureus; test: Antimicrobial activity against Staphylococcus aureus ATCC 25923 by serial plate dilution method

SMILES	MIC [1] [µM]	MIC [2] [µM]	MIC [3] [µM]	MIC [4] [µM]
Cc1ccc(/N=N/c2c(C)nn(-c3nc4ccc(Cl)cc4s3)c2C)cc1	131 (≈ 50.1 µg/mL)	262 (≈ 100 µg/mL)	65.6 (≈ 25.1 µg/mL)	131 (≈ 50.1 µg/mL)
CC1=NN(c2nc3ccc(Cl)cc3s2)C(=O)/C1=N/Nc1ccccc1Cl	248 (≈ 100 µg/mL)	248 (≈ 100 µg/mL)	124 (≈ 50.2 µg/mL)	62 (≈ 25.1 µg/mL)
CC(=O)N1CCN(c2ccc(OCC3COC(Cn4ccnc4)(c4ccc(Cl)cc4Cl)O3)cc2)CC1 (stereo unspecified) [KETOCONAZOLE]	5.88 (≈ 3.12 µg/mL)	11.8 (≈ 6.25 µg/mL)		
Cc1nn(-c2nc3ccc(Cl)cc3s2)c(C)c1/N=N/c1ccc(F)cc1	260 (≈ 100 µg/mL)	130 (≈ 50.1 µg/mL)	32.5 (≈ 12.5 µg/mL)	64.9 (≈ 25.1 µg/mL)
Cc1nn(-c2nc3ccc(Cl)cc3s2)c(C)c1/N=N/c1ccc(Cl)cc1	249 (≈ 100 µg/mL)	31.2 (≈ 12.5 µg/mL)	125 (≈ 50.2 µg/mL)	15.6 (≈ 6.27 µg/mL)
Cc1ccccc1/N=N/c1c(C)nn(-c2nc3ccc(Cl)cc3s2)c1C	262 (≈ 100 µg/mL)	525 (≈ 200 µg/mL)	262 (≈ 100 µg/mL)	262 (≈ 100 µg/mL)
CC1=NN(c2nc3ccc(Cl)cc3s2)C(=O)/C1=N/Nc1ccccc1O	260 (≈ 100 µg/mL)	519 (≈ 200 µg/mL)	260 (≈ 100 µg/mL)	130 (≈ 50.1 µg/mL)
Cc1nn(-c2nc3ccc(Cl)cc3s2)c(C)c1/N=N/c1ccccc1O	261 (≈ 100 µg/mL)	522 (≈ 200 µg/mL)	522 (≈ 200 µg/mL)	522 (≈ 200 µg/mL)
Cc1nn(-c2nc3ccc(Cl)cc3s2)c(C)c1/N=N/c1ccccc1C(=O)O	243 (≈ 100 µg/mL)	122 (≈ 50.1 µg/mL)	487 (≈ 200 µg/mL)	122 (≈ 50.1 µg/mL)
CC1=NN(c2nc3ccc(Cl)cc3s2)C(=O)/C1=N/Nc1ccc(C(=O)O)cc1	242 (≈ 100 µg/mL)	484 (≈ 200 µg/mL)	242 (≈ 100 µg/mL)	121 (≈ 50.1 µg/mL)
CC1=NN(c2nc3ccc(Cl)cc3s2)C(=O)/C1=N/Nc1ccc(C)cc1	522 (≈ 200 µg/mL)	261 (≈ 100 µg/mL)	131 (≈ 50.1 µg/mL)	65.3 (≈ 25.1 µg/mL)
NNc1nc2ccc(Cl)cc2s1	501 (≈ 100 µg/mL)	1000 (≈ 200 µg/mL)	501 (≈ 100 µg/mL)	250 (≈ 50 µg/mL)
Cc1nn(-c2nc3ccc(Cl)cc3s2)c(C)c1/N=N/c1ccc(C(=O)O)cc1	243 (≈ 100 µg/mL)	243 (≈ 100 µg/mL)	243 (≈ 100 µg/mL)	122 (≈ 50.1 µg/mL)
CC1=NN(c2nc3ccc(Cl)cc3s2)C(=O)/C1=N/Nc1ccccc1C	522 (≈ 200 µg/mL)	261 (≈ 100 µg/mL)	261 (≈ 100 µg/mL)	131 (≈ 50.1 µg/mL)
COc1ccc(N/N=C2/C(=O)N(c3nc4ccc(Cl)cc4s3)N=C2C)cc1	251 (≈ 100 µg/mL)	501 (≈ 200 µg/mL)	251 (≈ 100 µg/mL)	125 (≈ 50.1 µg/mL)

Other lines, results leading:

MIC [1] [µM]	MIC [2] [µM]	MIC [3] [µM]	MIC [4] [µM]	SMILES
112 (≈ 50.1 µg/mL)	56 (≈ 25 µg/mL)	112 (≈ 50.1 µg/mL)	112 (≈ 50.1 µg/mL)	Cc1nn(-c2nc3ccc(Cl)cc3s2)c(C)c1/N=N/c1ccc(Br)cc1
112 (≈ 50.1 µg/mL)	223 (≈ 100 µg/mL)	112 (≈ 50.1 µg/mL)	13.9 (≈ 6.26 µg/mL)	CC1=NN(c2nc3ccc(Cl)cc3s2)C(=O)/C1=N/Nc1ccc(Br)cc1
124 (≈ 50.1 µg/mL)	124 (≈ 50.1 µg/mL)	62 (≈ 25.1 µg/mL)	31 (≈ 12.5 µg/mL)	CC1=NN(c2nc3ccc(Cl)cc3s2)C(=O)/C1=N/Nc1ccc(Cl)cc1
64.6 (≈ 25 µg/mL)	129 (≈ 50.1 µg/mL)	129 (≈ 50.1 µg/mL)	32.3 (≈ 12.5 µg/mL)	CC1=NN(c2nc3ccc(Cl)cc3s2)C(=O)/C1=N/Nc1ccc(F)cc1
63 (≈ 25.1 µg/mL)	504 (≈ 200 µg/mL)	252 (≈ 100 µg/mL)	252 (≈ 100 µg/mL)	COc1ccc(/N=N/c2c(C)nn(-c3nc4ccc(Cl)cc4s3)c2C)cc1
125 (≈ 50.2 µg/mL)	125 (≈ 50.2 µg/mL)	249 (≈ 100 µg/mL)	499 (≈ 201 µg/mL)	Cc1nn(-c2nc3ccc(Cl)cc3s2)c(C)c1/N=N/c1ccccc1Cl
121 (≈ 50.1 µg/mL)	484 (≈ 200 µg/mL)	484 (≈ 200 µg/mL)	242 (≈ 100 µg/mL)	CC1=NN(c2nc3ccc(Cl)cc3s2)C(=O)/C1=N/Nc1ccccc1C(=O)O
